These results are taken from PubChem BioAssay (NCI).

Where “and” joins values, the source holds several entries; their conditions need not be identical. Identical values can stand only once.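 Assay format: 96-well plates, 48-hour exposure. GI50: concentration for 50% inhibition of growth. At the TGI there is no net growth.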 Some results are limits rather than exact numbers.

What all share (assay): inhibition of tumour cell growth, NCI panel, 48 h
Experiment [1] concerns MDA-MB-231 breast.
Experiment [2] relates to SN12C renal.
Experiment [3] relates to DU-145 prostate.
Experiment [4] deals with NCI-H226 lung.
Experiment [5] deals with NCI-H460 lung.
Experiment [6] relates to IGROV1 ovarian.
The subject of experiment [7] is NCI-H522 lung.
The subject of experiment [8] is HOP-92 NSCLC.
The test system of experiment [9] is SW-620 colon.
Experiment [10] concerns RPMI-8226 leukemia.

`C=C1SC(=Nc2ccccc2Cl)N(C(=O)c2sc3ccccc3c2Cl)C12CCCCC2`: the GI50 is 4.9 µM in experiment [1]; 6.99 µM in [2]; 6.2 µM in experiment [3]; 40 µM in experiment [4]; 4.71 µM in [5]; 9.66 µM in [6]. Moreover, the GI50 in experiment [7] was 4230 nM; in experiment [8], 2010 nM; in experiment [9] it was 5870 nM; in [10], 3.81 µM. The TGI in experiment [1], in experiment [2], in experiment [3], in [4], in experiment [5] and in experiment [6] was over 100 µM in each case. Besides, the TGI is over 100 µM in experiment [7], 9.31 µM in experiment [8], over 100 µM in [9] and 98.2 µM in experiment [10].
Consider `Nc1ccc(COC(O)CN2CCCCC2)cc1[N+](=O)[O-]` (configuration not stated), for which the TGI in [1], in [2], in experiment [3], in experiment [4], in [5] and in [6] was over 100 µM in each case. Moreover, the TGI in [7], in experiment [8], in [9] and in experiment [10] was over 100 µM throughout.
As for `Cc1nc2ccccn2c1NC(=O)NNC(=S)Nc1ccc(F)cc1`, the GI50 in experiment [1], in experiment [2], in [3], in experiment [4], in [5] and in [6] was over 100 µM each time. Further, the GI50 in experiment [7] was over 100000 nM; in experiment [8], over 100000 nM; in [9], over 100000 nM; in experiment [10], over 100 µM. Besides, the TGI in experiment [1], in experiment [2], in experiment [3], in experiment [4], in experiment [5] and in [6] was over 100 µM each time. In addition, the TGI in experiment [7], in [8], in experiment [9] and in experiment [10] was over 100 µM throughout.
Take `O=C(/C=C1\C(=O)N(Cc2ccccc2)c2ccccc21)c1ccc(OCCN2CCCCC2)cc1`: the GI50 in [1] is 1.92 µM; in [2] it was 1.9 µM; in experiment [3] it was 2.26 µM; in experiment [4], 16.8 µM; in experiment [5] it was 3.57 µM; in [6], 1.76 µM. Besides, the GI50 in experiment [7] was 1710 nM; in experiment [8], 1360 nM; in experiment [9], 1700 nM; in [10], 2.07 µM. The TGI in experiment [1] amounted to 3.88 µM; in [2], 4.03 µM; in experiment [3] it was 5.05 µM; in experiment [4], 39.7 µM; in experiment [5], 11.9 µM; in [6], 3.55 µM. Moreover, the TGI was 3.21 µM in experiment [7], 2.77 µM in experiment [8], 3.3 µM in [9] and 4.72 µM in experiment [10].
Consider `C[C@]12CC[C@H]3[C@@H](CC4SC(N)=NC45C/C(=N/NC(N)=O)CC[C@]35C)[C@@H]1CCC2=O` (some centres not stated), for which the GI50 in experiment [1] is 1.7 µM; in experiment [2], 1.89 µM; in experiment [3], 1.75 µM; in experiment [4], 2.09 µM; in [5] it was 1.92 µM; in [6], 1.78 µM. For the same compound, the GI50 is 1930 nM in [7], 1510 nM in [8], 1690 nM in experiment [9] and 0.3 µM in experiment [10]. Moreover, the TGI in experiment [1] was determined as 3.43 µM; in experiment [2] it was 3.45 µM; in experiment [3], 3.41 µM; in [4], 4.91 µM; in experiment [5] it was 3.61 µM; in experiment [6], 3.43 µM. In addition, the TGI in experiment [7] was found to be 4.06 µM; in experiment [8] it was 3.16 µM; in experiment [9], 3.39 µM; in [10], 1.37 µM.
As to `ClCc1ccccc1Cn1cnc2c(Cl)ncnc21`, the GI50 is 3.04 µM in experiment [1]; 3.37 µM in experiment [2]; 5.65 µM in [3]; 4.59 µM in experiment [4]; 15.4 µM in experiment [5]; 1820 nM in experiment [7]. Besides, the GI50 was 1490 nM in experiment [8], 1780 nM in experiment [9] and 14.1 µM in experiment [10]. Besides, the TGI was found to be 7.41 µM in [1]; 8.72 µM in experiment [2]; 34.4 µM in experiment [3]; 12.5 µM in experiment [4]; 44.5 µM in experiment [5]; 7.24 µM in [7]. Also, the TGI in experiment [8] was 4.27 µM; in [9], 5.04 µM; in experiment [10], 40.6 µM.
For `Cc1c(N)nc(C(CC(N)=O)NCC(N)C(N)=O)nc1C(=O)NC(C(=O)NC(C)C(O)C(C)C(=O)NC(C(=O)NCCc1nc(-c2nc(C(=O)NCCCNC(C)c3ccccc3)cs2)cs1)C(C)O)C(OC1OC(CO)C(O)C(O)C1OC1OC(CO)C(O)C(OC(N)=O)C1O)c1cnc[nH]1` (configuration not stated), the GI50 was over 100 µM in [1]; 5.99 µM in [2]; 10.5 µM in [3]; 1.59 µM in [4]; 0.391 µM in [5]; 8.21 µM in experiment [6]. Besides, the GI50 in experiment [7] was 4100 nM; in experiment [8], 227 nM; in experiment [9], 24800 nM; in experiment [10], 50.4 µM. For the same compound, the TGI in [1] was over 100 µM; in [2] it was 29.3 µM and > 100 µM; in [3], 39.2 µM and 55 µM; in experiment [4], 2.97 µM and 24.8 µM; in experiment [6], 50 µM and > 100 µM; in experiment [7] it was 20 µM and 44.3 µM. Moreover, the TGI was 3.51 µM and 25.8 µM in [8]; 50 µM and > 100 µM in experiment [9]; 20.3 µM and > 100 µM in experiment [10].
